“Also recorded” adds a separate entry of the source.
How the values were obtained:
[1] = tested on: NR4A1 and GLUT-4 gene expression; assay: NR4A1/GLUT-4 mRNA expression in C2C12 cells; assay type: cell-based, murine
Description: FIGS. 26A-26D graphically illustrate relative NR4A1/glucose transporter 4 (GLUT-4) mRNA expression in C2C12 cells treated with C-DIM analogs, according to embodiments of the present disclosure;
(§1) There is also evidence that NR4A1 plays a role in enhancing glucose metabolism in muscle and this is consistent with potential anti-diabetic activity for NR4A1 ligands which has previously been reported for cytosporone-derived NR4A1 ligands in mouse models. Initial studies with DIM-C-pPhOH and second generation substituted analogs used C2C12 muscle cells as a model for investigating the anti-diabetic activity of these compounds. FIGS. 25A-25D illustrate that NR4A1 is expressed in C2C12 cells and treatment with C-DIM8 (DIM-C-pPhOH) or the second generation substituted C-DIM8 analogs 3,5-dibromo-(C-DIM8-3,5-Br2), 3-chloro-(C-DIM8-3-Cl), and 3-chloro-5-methoxy-(C-DIM8-3-Cl-5-OCH3) increased expression of NR4A1 in C2C12 cells.

[2] = tested on: PFKM, PGAM2, BPGM, PYGM; assay: mRNA expression of glycolytic genes in C2C12 cells; assay type: cell-based, murine
Description: FIGS. 28A-28E graphically illustrate relative mRNA expression of glycolytic genes in C2C12 cells treated with DIM-C-pPhOH (A), DIM-C-pPhOH-3,5-Br2 (B), DIM-C-pPhOH-3-Cl (C), and DIM-C-pPhOH-3-Cl-5-OCH3 (D) for 24 hr, or cells were transfected with NR4A1 expression plasmid (E);
Overexpression of NR4A1 in C2C12 cells induces several genes involved in glycolysis including phosphofructokinase (PFKM), phosphoglycerate mutase 2 (PGAM2), bisphosphoglycerated mutase (BPGM), and glycogen phosphorylase M (PYGM).

[3] = tested on: GAL4-NR4A1; assay: GAL4-NR4A1/UAS-Luc transactivation (luciferase) in Panc1 cells; assay type: cell-based
Description: (§2) FIG. 2 graphically illustrates luciferase activity in Panc1 cells transfected with GAL4-NR4A1 and GAL4-NR4A2 and UAS-Luc (GAL4-binding luciferase construct) treated with 4-, 3- and 2-hydroxy C-DIM analogs according to embodiments of the present disclosure;
Therefore, nine substituted 4-hydroxy analogs were synthesized to investigate their relative potencies as NR4A1 ligands and their half-lives since some of the substituents buttress the hydroxy group. Their effects on activation/inactivation of GAL4-NR4A1 and GAL4-NR4A2 in Panc1 cells were determined (see FIGS. 9 and 13).

[4] = target: NR4A1 (Homo sapiens, UniProt P22736); assay: NR4A1 binding affinity of the 4-hydroxy compound
[5] = tested on: NR4A1, Rab4, AMPK; assay: Western blots of whole cell lysates of C2C12 muscle cells; assay type: cell-based, murine; details: western blot
Description: FIGS. 25A-25D are images of western blots of whole cell lysates of C2C12 cells treated with C-DIM analogs, according to embodiments of the present disclosure;
as §1

[6] = tested on: cancer cell lines; details: cited from earlier work
[7] = cited from earlier work
[8] = target: T1, NR4A1 LBD (Homo sapiens, UniProt P22736); assay: Surface plasmon resonance binding, immobilized NR4A1 LBD; details: 5 or 10 μM ligand, 25° C., Biacore 3000, CM5 chip
T1 construct: Purified NR4A1 and NR4A2 LBD proteins were covalently immobilized
Method: (§3) Binding experiments were performed using the SPR method at 25° C. on Biacore 3000 system (GE Healthcare). Purified NR4A1 and NR4A2 LBD proteins were covalently immobilized on CM5 sensor chip (GE) using an amine coupling procedure. Alternatively, the more expensive his-tag-binding NTA sensor chip (GE) can be used to insure correct protein surface orientation. SPR response curves (sensorgrams) were generated after ligand injection using 5 or 10 μM DIM-C-pPhX analogs with X=Br (#2), X═OH (#8), X═CN (#10) and X═CO2Me (#14) (see FIG. 22).

[9] = tested on: SERPINB5; assay: SERPINB5 induction (western blot) in SKBR3 breast cancer cells; assay type: cell-based; details: for potency order for inducing SERPINB5: western blot, FIGS. 3 and 5
Description: FIG. 5 includes images of western blots of SKBR3 (breast) cancer cells treated with 4-, 3- and 2-hydroxy C-DIM compounds, according to embodiments of the present disclosure, showing up-regulation of expression of SERPINB5;
In this study, the DMSO (control) value was relatively high, resulting in low induction by the 4-hydroxy compound, whereas in other experiment induction was observed due to lower basal SERPINB5 levels.

[10] = tested on: G6Pase and PEPCK; assay: G6Pase and PEPCK in glucose-starved HepG2 cells; assay type: cell-based
[11] = tested on: SERPINB5; assay: SERPINB5 induction (western blot) in Panc1 cells; assay type: cell-based; details: 20 μM
[12] = tested on: TXNDC5 and PAX3-FOX01A; assay: Western blot of NR4A1-regulated gene products in Rh30 rhabdomyosarcoma cells; assay type: cell-based; details: 20 μM
Description: FIG. […]
The effects of the 4-hydroxy reference compound and the nine analogs were compared with respect to down-regulation of two NR4A1-regulated gene products in Rh30 rhabdomyosarcoma cells, namely TXNDC5 and PAX3-FOX01A. […] The results also indicate that NR4A1-dependent transactivation assays appear to be less predictive than NR4A1-regulated gene products in determining differences in NR4A1 antagonist potencies.

[13] = tested on: tumor growth; details: cited from earlier work
[14] = tested on: C2C12 cells; assay: Glucose uptake in C2C12 cells; assay type: cell-based, murine; details: 15 and 20 μM
Description: FIG. 27 graphically illustrates glucose uptake in C2C12 cells treated with C-DIM analogs, according to embodiments of the present disclosure;

[15] = tested on: human MDA-MB-231 breast cancer cells; assay: Orthotopic breast tumor growth in athymic nude mice; assay type: in vivo, mouse; details: for tumor growth: 10 mg/kg/day, athymic nude mice, orthotopic model; for ED50 values for tumor growth inhibition: expected from the 10 mg/kg/day result
Method: FIGS. 12A-12C graphically illustrate mammary tumor volume in an athymic nude mouse xenograft model using human MDA-MB-231 breast cancer cells treated with 4-hydroxy C-DIM analogs (10 mg/kg/day) (black) relative to a control (gray), according to embodiments of the present disclosure;

[16] = Blood glucose in C57BL/6 mice on a high-fat diet; assay type: in vivo, mouse
[17] = target: T2, NR4A2 LBD (Homo sapiens, UniProt P43354); assay: Surface plasmon resonance binding, immobilized NR4A2 LBD; details: 5 or 10 μM ligand, 25° C., Biacore 3000, CM5 chip
T2 construct: Purified NR4A1 and NR4A2 LBD proteins were covalently immobilized
Method: as §3

[18] = tested on: GAL4-NR4A2; assay: GAL4-NR4A2/UAS-Luc transactivation (luciferase) in Panc1 cells; assay type: cell-based
Description: as §2
FIG. 13 graphically illustrates luciferase activity in Panc1 cells transfected with GAL4-NR4A2 and UAS-Luc treated with 3-hydroxy C-DIM analogs, according to embodiments of the present disclosure;
FIG. 15 graphically illustrates luciferase activity in Panc1 cells transfected with GAL4-NR4A2 and UAS-Luc treated with 2-hydroxy C-DIM analogs, according to embodiments of the present disclosure;

[19] = tested on: β1-integrin and TXNDC5; assay: Western blot down-regulation of β1-integrin and TXNDC5 in Panc1 and SKBR3 cells; assay type: cell-based; details: FIG. 3
Description: FIG. 3 includes images of western blots of Panc1 (pancreatic) and SKBR3 (breast) cancer cells treated with monohydroxy C-DIM compounds, according to embodiments of the present disclosure, showing down-regulation of expression of two NR4A1-dependent factors, β1-integrin and TXNDC5;
Compared to the 4-bromo standard NR4A2 ligand, the 3- and 2-hydroxy isomers had minimal NR4A2 activity. […] The results correlate with the transactivation data.

[20] = tested on: RMS xenograft tumor; assay: RMS mouse xenograft tumor growth

T1 sequence (P22736 360-595 limits assumed, species assumed): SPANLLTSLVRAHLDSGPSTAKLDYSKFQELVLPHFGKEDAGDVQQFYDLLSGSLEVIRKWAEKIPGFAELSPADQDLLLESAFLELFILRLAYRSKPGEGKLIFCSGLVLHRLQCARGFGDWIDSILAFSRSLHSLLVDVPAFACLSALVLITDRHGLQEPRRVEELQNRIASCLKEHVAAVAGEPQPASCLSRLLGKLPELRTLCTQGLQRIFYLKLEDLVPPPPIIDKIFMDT
Sequence of NR4A1 (P22736 whole entry, species assumed): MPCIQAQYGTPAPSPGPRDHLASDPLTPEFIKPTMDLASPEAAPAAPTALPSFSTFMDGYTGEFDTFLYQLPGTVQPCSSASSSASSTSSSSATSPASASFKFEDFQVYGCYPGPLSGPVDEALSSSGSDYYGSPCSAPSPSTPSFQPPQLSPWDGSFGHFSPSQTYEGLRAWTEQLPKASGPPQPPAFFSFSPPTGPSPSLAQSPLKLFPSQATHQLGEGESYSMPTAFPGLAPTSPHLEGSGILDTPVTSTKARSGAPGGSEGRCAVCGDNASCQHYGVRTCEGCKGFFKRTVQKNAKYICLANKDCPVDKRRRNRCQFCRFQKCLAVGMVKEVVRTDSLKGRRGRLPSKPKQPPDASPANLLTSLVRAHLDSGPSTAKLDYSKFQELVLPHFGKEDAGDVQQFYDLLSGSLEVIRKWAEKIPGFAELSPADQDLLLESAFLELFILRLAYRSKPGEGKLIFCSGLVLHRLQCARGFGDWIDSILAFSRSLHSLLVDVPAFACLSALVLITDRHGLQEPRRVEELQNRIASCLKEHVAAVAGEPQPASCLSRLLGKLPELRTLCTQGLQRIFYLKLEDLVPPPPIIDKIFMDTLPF
T2 sequence (P43354 360-595 limits assumed, species assumed): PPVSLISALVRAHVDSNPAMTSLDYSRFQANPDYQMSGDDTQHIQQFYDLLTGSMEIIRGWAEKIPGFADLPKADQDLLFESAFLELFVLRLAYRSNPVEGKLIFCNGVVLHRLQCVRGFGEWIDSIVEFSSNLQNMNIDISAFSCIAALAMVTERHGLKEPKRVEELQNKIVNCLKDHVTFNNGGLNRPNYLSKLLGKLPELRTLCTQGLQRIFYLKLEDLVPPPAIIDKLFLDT

CN(C)C(=N)N=C(N)N [metformin]
NR4A1 and GLUT-4 gene expression [1]: induce
expression of glycolytic genes PFKM, PGAM2, BPGM, PYGM [2]: significantly induced

Oc1cccc(C(c2c[nH]c3ccccc23)c2c[nH]c3ccccc23)c1Br [2 bromo (3-hydroxy analog)]
potency in NR4A1-dependent transactivation vs unsubstituted 3- and 4-hydroxy DIM standards ([3]; substituted 3-hydroxy DIM analogs, FIG. 7): more potent

Oc1ccc(C(c2c[nH]c3ccccc23)c2c[nH]c3ccccc23)cc1F [3-fluoro-4-hydroxy analog]
potency as inhibitors of NR4A1-dependent transactivation relative to the 4-hydroxy reference compound ([3]; tested at 7.5 μM and 15 μM): exception

Oc1ccc(C(c2c[nH]c3ccccc23)c2c[nH]c3ccccc23)cc1 [DIM-C-pPhOH]
binding to NR4A1 [4]: high affinity
expression of NR4A1 [5]: increased
receptor-independent activities such as mitochondrial toxicity ([6]; cancer cell lines): minimal
concentrations that block the pro-oncogenic pathways ([6]; cell culture): 10 to 20 µM
in vivo half-life [7]: short; also recorded: very short
serum half-life ([7]; in vivo): relatively short
SPR binding to NR4A1 [8]: bound with high affinity
induction of SERPINB5 ([9]; SKBR3 cells, 20 μM, DMSO control value relatively high): minimally induced
potency order for inducing SERPINB5 [9]: 2-OH/3-OH>4-OH
G6Pase and PEPCK mRNA levels [10]: inhibit
NR4A1 and GLUT-4 gene expression [1]: induce
concentration of maximal induction of NR4A1 and GLUT-4 gene expression [1]: 20 µM
induction of SERPINB5 [11]: induced SERPINB5
decreased expression of TXNDC5 and PAX3-FOX01A [12]: 50-60%
partial tumor growth inhibition ([13]; 30-40 mg/kg/day, previous studies): 40-50%
doses at which tumor growth is (partially) inhibited ([13]; mouse, in vivo): 30 to 40 mg/kg/day
doses at which tumor growth is only partially inhibited ([13]; mouse, in vivo): 40 to 50 mg/kg/day
glucose uptake [14]: significantly induced
concentration at which significant inhibition of GAL4-NR4A1 transactivation was observed ([3]; not at 15 μM (steep dose response curve)): 22.5 µM

COc1cc(C(c2c[nH]c3ccccc23)c2c[nH]c3ccccc23)cc(Cl)c1O [C-DIM8-3-Cl-5-OCH3]
expression of NR4A1 [5]: increased
tumor growth [15]: inhibited tumor growth
ED50 values for tumor growth inhibition [15]: low mg/kg/day or high μg/kg/day range
serum glucose levels in a glucose tolerance test compared to control animals ([16]; 10 mg/kg/d): decreased
serum glucose ([16]; 25 mg/kg/d, current study): decreased
serum insulin levels ([16]; 25 mg/kg/d, current study): increased
blood glucose levels ([16]; HFD C57BL/6 mice, 10 mg/kg/d in corn oil, every second day, oral gavage): significant decrease

Brc1ccc(C(c2c[nH]c3ccccc23)c2c[nH]c3ccccc23)cc1 [DIM-C-pPhBr, 1,1-bis(3′-indolyl)-1-(p-bromophenyl)methane]
SPR binding to NR4A1 [8]: sticky interactions
SPR binding to NR4A2 [17]: sticky interactions

Oc1ccc(C(c2c[nH]c3ccccc23)c2c[nH]c3ccccc23)cc1Cl [C-DIM8-3-Cl]
expression of NR4A1 [5]: increased
tumor growth [15]: inhibited tumor growth
ED50 values for tumor growth inhibition [15]: low mg/kg/day or high μg/kg/day range

Oc1cccc(C(c2c[nH]c3ccccc23)c2c[nH]c3ccccc23)c1 [3-hydroxy compound]
NR4A2 activity (GAL4-NR4A2) compared to the 4-bromo reference [18]: minimal
potency order for inducing SERPINB5 [9]: 2-OH/3-OH>4-OH
potency in down-regulation of β1-integrin and TXNDC5 vs the 4-hydroxy compound [19]: more potent

Oc1ccccc1C(c1c[nH]c2ccccc12)c1c[nH]c2ccccc12 [2-hydroxy compound]
NR4A2 activity (GAL4-NR4A2) compared to the 4-bromo reference [18]: minimal
potency order for inducing SERPINB5 [9]: 2-OH/3-OH>4-OH
potency in down-regulation of β1-integrin and TXNDC5 vs the 4-hydroxy compound [19]: more potent

Oc1c(Br)cc(C(c2c[nH]c3ccccc23)c2c[nH]c3ccccc23)cc1Br [C-DIM8-3,5-Br2]
expression of NR4A1 [5]: increased
tumor growth [15]: inhibited tumor growth
ED50 values for tumor growth inhibition [15]: low mg/kg/day or high μg/kg/day range
RMS tumor growth ([20]; 0.25 mg/kg/d): tumor growth inhibition
RMS tumor growth ([20]; doses of 10.0, 7.5, 5.0 and 2.5 mg/kg/day): complete tumor growth inhibition
toxicity ([20]; in vivo study, RMS xenograft): not observed
G6Pase and PEPCK mRNA levels [10]: inhibit

— patent US12264150B2, “NR4A1 ligands, pharmaceutical compositions, and related methods of use” (The Texas A&M University System, priority 2017, dated 2025)
